Patent US20080176787A1, “Parathyroid hormone analogues and methods of use” (priority 2005, published 2008)
Positions of bridges follow the written chain, without caps; N, C: chain ends. Residues, ends and D or L forms follow the SMILES beside them.

System: gonad-intact cynomolgus monkeys
Assay: 52-week (12 months) daily subcutaneous study in gonad-intact young cynomolgus monkeys: bone mass, histomorphometry, % cortical porosity
Type: in vivo
Conditions: for % Cortical Porosity: Tibial Mid-Diaphysis, 12 months
Protocol: The peptide [Leu^27]cyclo[Glu^22-Lys^26]-hPTH-(1-31)-NH2 Ostabolin-C™ was administered daily by subcutaneous injection to gonad-intact cynomolgus monkeys (4/sex/group) at dose levels of 0, 2, 10 and 25 μg/kg for 52 weeks. Monkeys were 30 to 40 months of age (2.3-3.5 kg) at treatment start. Tibiae were retained for histomorphometry following labeling with calcein green 15 and 5 days prior to euthanasia. Bone mass, as measured by DXA (dual-energy x-ray absorptiometry) and QCT (quantitative computed tomography), was increased at the lumbar spine, femur and tibia. Changes in vertebral BMD (bone mineral density) translated into significant increases in bone strength. […] Tibial cancellous bone volume increased by more than 50% in all the peptide [Leu^27]cyclo[Glu^22-Lys^26]-hPTH-(1-31)-NH2 treated groups compared to controls and in the tibial mid-diaphysis, increases in cortical width and relative cortical area with concurrent decreases in medullary area were observed. […] Increases in indices of bone formation were associated with decreases in indices of bone resorption (decreased bone resorption markers, decreased osteoclast surface area, minimal cortical porosity), consistent with the uncoupling of these events. This combination of anabolic and anti-catabolic actions may have significant therapeutic value in the treatment of osteoporosis.
Comparative data regarding increase in cortical bone porosity in monkey subjects using Ostabolin C at a variety of doses and using the prior art PTHs 1-34 is shown below.

For `CC[C@H](C)[C@H](NC(=O)[C@H](CCC(=O)O)NC(=O)[C@H](CO)NC(=O)[C@@H](NC(=O)[C@@H](N)CO)C(C)C)C(=O)N[C@@H](CCC(N)=O)C(=O)N[C@@H](CC(C)C)C(=O)N[C@@H](CCSC)C(=O)N[C@@H](Cc1c[nH]cn1)C(=O)N[C@@H](CC(N)=O)C(=O)N[C@@H](CC(C)C)C(=O)NCC(=O)N[C@@H](CCCCN)C(=O)N[C@@H](Cc1c[nH]cn1)C(=O)N[C@@H](CC(C)C)C(=O)N[C@@H](CC(N)=O)C(=O)N[C@@H](CO)C(=O)N[C@@H](CCSC)C(=O)N[C@@H](CCC(=O)O)C(=O)N[C@@H](CCCN=C(N)N)C(=O)N[C@H](C(=O)N[C@H]1CCC(=O)NCCCC[C@@H](C(=O)N[C@@H](CC(C)C)C(=O)N[C@@H](CC(C)C)C(=O)N[C@@H](CCC(N)=O)C(=O)N[C@@H](CC(=O)O)C(=O)N[C@H](C(N)=O)C(C)C)NC(=O)[C@H](CCCN=C(N)N)NC(=O)[C@H](CC(C)C)NC(=O)[C@H](Cc2c[nH]c3ccccc23)NC1=O)C(C)C` [Ostabolin-C, [Leu^27]cyclo[Glu^22-Lys^26]-PTH-(1-31)-NH2] (H-SVSEIQLMHNLGKHLNSMERVEWLRKLLQDV-NH2; lactam 22-26), the “% Cortical Porosity” value (F, 2 μg/kg/day) was 2.5 ± 0.41%, the “% Cortical Porosity” value (F, 10 μg/kg/day) was 2.6 ± 0.85% and the “% Cortical Porosity” value (F, 25 μg/kg/day) was 3.2 ± 0.87%. For the same compound, the “% Cortical Porosity” value (M, 2 μg/kg/day) was 4.2 ± 0.29%, the “% Cortical Porosity” value (M, 10 μg/kg/day) was 5.1 ± 1.08% and the “% Cortical Porosity” value (M, 25 μg/kg/day) was 8.0 ± 5.54%. For the same compound, the “cortical porosity” value (two highest dose levels, 52 weeks) was “Only minor increases”.
